# Assay results taken from patent publication US20060084135A1, “Compositions for manipulating the lifespan and stress response of cells and organisms” (priority 2003, published 2006).
# Columns and labels:
# [1] = test system: S. cerevisiae; assay: Yeast replicative lifespan; format: cell-based; settings: 10 μM, wild type
# Method: Average lifespan was determined for wild type untreated (□), quercetin (◯) and piceatannol (●).
# [2] = test system: rDNA silencing (RDN1::URA3); assay: Ribosomal DNA silencing assay (URA3 reporter); format: cell-based, S. cerevisiae
# Method: Yeast lifespans were determined as in FIG. 2. […] Frequencies were determined by loss of the ADE2 marker gene from the rDNA locus (RDN1). […] Pre-treated cells (RDN1::URA3) were harvested and spotted as 10-fold serial dilutions on either SC or SC with 5-fluororotic acid (5-FOA). In this assay, increased rDNA silencing results in increased survival on 5-FOA medium.
# Ribosomal DNA silencing assays using the URA3 reporters were performed as previously described by Bitterman et al. (J Biol Chem 277, 45099-107 (2002)). Ribosomal DNA recombination frequencies were determined by plating W303AR cells (Sinclair, D. A. and Guarente, L. Cell 91, 1033-42 (1997)) on YPD medium with low adenine/histidine and counting the fraction of half-red sectored colonies using Bio-Rad Quantity One software as described by Anderson et al. (J Biol Chem 277, 18881-90. (2002)). At least 6000 cells were analyzed per experiment and all experiments were performed in triplicate. All strains were pre-grown for 15 hours with the relevant compound prior to plating.
# [3] = test system: S. cerevisiae; assay: Yeast chronological lifespan; format: cell-based; settings: 10 μM or 100 μM
# [4] = test system: lysine 382 of p53 in HEK 293 cells; assay: p53 Ac-K382 Western blot in HEK 293 cells expressing dominant negative SIRT1-H363Y; format: cell-based, human; settings: low concentrations of resveratrol
# [5] = test system: C. elegans (strain N2); assay: C. elegans lifespan; format: in vivo; settings: 100 μM, 50 worms strain N2 (control 5 alive)
# Method: Thus, the presence of resveratrol in the growth media of C. elegans extends their lifespan.
# The effect of some of these compounds on lifespan was determined in yeast, C. elegans and D. melanogaster, as described above.
# [6] = Stability in solution (decay of SIRT1 fold-stimulation of aged stock); format: physicochemical; settings: ethanol stock solution; ethanol stock 2.5 mM, room temperature, glass vials, nitrogen; assayed at 50 μM; read-out: Stability in Solution t1/2 (converted)
# Excerpt: The fold-stimulation (ratio to control) obtained with a compound diluted from an aged stock solution was compared to an identical dilution from a stock solution freshly prepared from the solid compound. “t1/2” is defined as the time required for the SIRT1 fold-stimulation of the compound from the aged solution to decay to one-half of that obtained from a freshly prepared solution. […] Stocks were aged by storage at room […] temperature, in glass vials, under a nitrogen atmosphere.
smiles,measurement,setting,value
"Oc1ccc(/C=C/c2cc(O)cc(O)c2)cc1 [Resveratrol, 3,5,4′-Trihydroxy-trans-stilbene]",Effect on maximum lifespan,[1],significantly increased
same,Increase of average lifespan,[1],70%
same,Effect on rDNA silencing,[2],only minor effects
same,Effect on chronological lifespan,[3],failed to extend
same,Ability to promote deacetylation of p53 in cells expressing dominant-negative SIRT1 (H363Y),[4],diminished
same,Worms alive on day 17,[5],17 worms
same,half-life at 50 µM,[6],59 h
